Legend:
[1] = test system: bovine brain glycolipid transfer protein (GTP) cDNA (660 bp); assay: Pilot low temperature PCR of GTP with 1,5-pentanediol; assay type: biochemical; details: normalized: 1,5-pentanediol (95/72° C.) = 1
Experimental: Amplification reactions were carried out under the following general conditions. Those skilled in the art will appreciate, however, that to the extent that the conditions (set forth in this application) required for specific experiments described in this example were inconsistent with the following general conditions, limited exceptions to the following general conditions were made The general conditions were as follows: 10 Mm Tris-HCl (Ph 8.8), 50 Mm KCl, 1.5 Mm MgCl2, 0.01% (w/v) gelatin, 0.2 Um primers, 0.06 ng/ul template, 0.2 Mm each Dntp, 0.04 U/ul Taq polymerase. The templates used were bovine brain N-WASP cDNA (1518 bp), a 996 by segment of human myeloid leukocyte c-jun cDNA, a 511 by segment of human prostate-specific membrane antigen (PSM) cDNA, and bovine brain glycolipid transfer protein (GTP) cDNA (660 bp). cDNA synthesis was carried out using the FIRST-STRAND® RT-PCR kit from Stratagene on the respective mRNAs purchased from Clontech. All amplification reactions for gene were carried out using a single master batch of cDNA. Taq polymerase and dNTPs were obtained from Stratagene. Primers were obtained from Genosys. Primer melting temperatures (Tms) were calculated using the Genosys oligo calculator program. The sequences of the primers were as follows.
Polymerase chain reactions for the N-WASP gene were conducted on a ROBOCYCLER® Gradient 40 thermal cycler from Stratagene using 100 ul solutions in 600 ul thin-walled tubes. For expediency, amplification of c-jun, PSM and GTP was carried out in a ROBOCYCLER® Gradient 96 thermal cycler from Stratagene using 50 ul solutions in 200 ul thin-walled tubes. Prior to Taq polymerase addition, a hotstart protocol was carried out that consisted of an initial cycle of 95° C. for 5 minutes (11) to ensure complete first-strand separation, followed by a cycle of 54° C. for 5 minutes. Amplifications were run for 30 cycles. Denaturation was done for 1 minute at the minimum temperatures that yielded discernable amplification: 92° C. for N-WASP and 95° C. for c-jun, PSM and GTP. Extension was done at 72° C. for periods depending on target length: 2 minutes for N-WASP, 1.5 minutes for c-jun and GTP, and 1 minute for PSM. Annealings were carried out either at fixed concentrations of additives using temperature gradients of 38-56° C. for N-WASP and 44-58° C. for the other targets, or at varying concentrations of additives using fixed temperatures of 41° C. for N-WASP, 50° C. for c-jun and PSM, and 54° C. for GTP.
Amplification products were analyzed by agarose gel electrophoresis on 0.8% agarose gels in which 20 ul reaction products were loaded with 4 ul loading buffer. Gels were stained with ethidium bromide, visualized on a UV transilluminator (Fisher), and documented by photography. Densitometric quantitation of amplification products was carried out using IMAGE SCANNER® and IMAGE MASTER® software from Amersham Pharmacia. Background correction was done using the software's rolling disc method. […] GTP was used as the target because it has the lowest GC content of the three templates used. PCR reactions were carried out in the presence of 1.0 and 1.5M 1,5-pentanediol under the conditions of 85° C. denaturing and 53° C. extension, using a 50° C. annealing temperature. In addition, 1.5M and 2.0M 1,5-pentandediol were tested using an 80° C. denaturing temperature, with identical annealing and extension temperature. Finally, 2.0, 2.5, and 3.0M 1,5-pentanediol were tested in GTP amplification employing a 75° C. denaturation temperature.

Taq polymerase = biological target: T1, Taq polymerase (Thermus aquaticus, UniProt P19821); assay: Taq polymerase activity assays at low temperature in the presence of additives; assay type: biochemical; details: for Activity of Taq polymerase / Activation: 1.0M 1,5-pentanediol, 0.7M 1,6-hexanediol; for Activity of Taq polymerase: normalized to activity of control at 62° C.; for Activation: change in Taq activity versus control
T1 construct: purchased Stratagene
T1 sequence (P19821 whole entry): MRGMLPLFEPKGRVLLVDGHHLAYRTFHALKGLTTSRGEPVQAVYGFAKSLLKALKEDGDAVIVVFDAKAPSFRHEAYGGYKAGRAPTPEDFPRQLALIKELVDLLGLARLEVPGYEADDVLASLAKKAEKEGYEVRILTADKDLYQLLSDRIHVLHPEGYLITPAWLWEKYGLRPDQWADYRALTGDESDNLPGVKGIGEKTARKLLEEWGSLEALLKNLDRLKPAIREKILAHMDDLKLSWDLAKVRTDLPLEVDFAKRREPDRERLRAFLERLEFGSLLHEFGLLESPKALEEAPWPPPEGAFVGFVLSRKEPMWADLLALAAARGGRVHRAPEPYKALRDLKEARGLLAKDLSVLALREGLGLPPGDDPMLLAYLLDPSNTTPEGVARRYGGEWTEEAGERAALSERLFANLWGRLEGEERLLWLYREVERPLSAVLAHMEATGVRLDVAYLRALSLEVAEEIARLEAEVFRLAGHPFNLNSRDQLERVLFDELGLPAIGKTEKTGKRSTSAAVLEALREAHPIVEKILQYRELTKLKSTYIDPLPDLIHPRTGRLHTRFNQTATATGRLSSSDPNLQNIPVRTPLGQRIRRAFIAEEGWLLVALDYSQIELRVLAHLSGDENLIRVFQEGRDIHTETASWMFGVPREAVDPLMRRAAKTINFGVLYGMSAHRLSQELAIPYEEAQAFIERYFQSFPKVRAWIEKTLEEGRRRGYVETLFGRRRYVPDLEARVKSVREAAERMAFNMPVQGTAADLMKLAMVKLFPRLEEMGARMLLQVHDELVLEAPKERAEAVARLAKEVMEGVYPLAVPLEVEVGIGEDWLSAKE
Experimental: The measured polymerase activity, then, is in fact a function of two variables—temperature and additive concentration. The plot of measured activity versus temperature and additive concentration is a two-dimensional surface. While a truly comprehensive search for maximal polymerase activity would entail screening this entire surface, the number of experiments required to do so would of course be impractical. Therefore, polymerase activity was measured first as a function of temperature in the absence of additives and at one given, high additive concentration. The temperature that yielded the maximum activity of the polymerase at that concentration was then targeted for concentration gradient studies.
First, polymerase activity assays were carried out in the absence of additives and in the presence of 1.0M 1,5-pentanediol and 0.7M 1,6-hexanediol at temperatures between 46 and 62° C. Next, polymerase activity was studied at 53° C. in the presence of concentration gradients of 1,5-pentanediol, 2-pyrrolidone, sulfolane and tetramethylene sulfoxide. The concentrations tested were: 1,5-pentanediol: 1.0, 1.3, 1.5, 2.25, 3.0 and 3.5M; 2-pyrrolidone: 1.25, 1.5, 2.0 and 3.9M; sulfolane: 1.0, 1.5, 2.0 and 2.75M, tetramethylene sulfoxide: 1.0, 1.5, 2.0 and 3.0M.

## OCCCCCO [1,5-Pentanediol]
[1]; 75/50/53° C., 2.0 M 1,5-pentanediol
  GTP Potency: 0.00
[1]; 75/50/53° C., 2.0 M 1,5-pentanediol, listed as 1,5-pentanediol
  GTP Potency: unsuccessful
[1]; 75/50/53° C., 2.5 M 1,5-pentanediol
  GTP Potency: 0.00
[1]; 75/50/53° C., 2.5 M 1,5-pentanediol, listed as 1,5-pentanediol
  GTP Potency: unsuccessful
[1]; 75/50/53° C., 3.0 M 1,5-pentanediol
  GTP Potency: 0.53
[1]; 75/50/53° C., 3.0 M 1,5-pentanediol, listed as 1,5-pentanediol
  GTP Potency: succeeded in producing amplification
[1]; 80/50/53° C., 1.5 M 1,5-pentanediol
  GTP Potency: 0.00
[1]; 80/50/53° C., 1.5 M 1,5-pentanediol, listed as 1,5-pentandediol
  GTP Potency: failed to produce any discernable amplification
[1]; 80/50/53° C., 2.0 M 1,5-pentanediol
  GTP Potency: 2.69
[1]; 80/50/53° C., 2.0 M 1,5-pentanediol, listed as 1,5-pentandediol
  GTP Potency: high yield
[1]; 85/50/53° C. denaturation/annealing/extension, 1.0 M 1,5-pentanediol
  GTP Potency: 2.78
[1]; 85/50/53° C. denaturation/annealing/extension, 1.0 M 1,5-pentanediol, listed as 1,5-pentanediol
  GTP Potency: strong amplification
[1]; 85/50/53° C., 1.5 M 1,5-pentanediol
  GTP Potency: 2.64
[1]; 85/50/53° C., 1.5 M 1,5-pentanediol, listed as 1,5-pentanediol
  GTP Potency: strong amplification
Taq polymerase; 1.0M, within 49° C.-53° C.
  Activation of Taq polymerase: exceeds 25%
Taq polymerase; 47° C.
  Activity of Taq polymerase: 0.30
  Activation: −9%
Taq polymerase; 48° C.
  Activity of Taq polymerase: 0.40
  Activation: −3%
Taq polymerase; 49° C.
  Activity of Taq polymerase: 0.54
  Activation: +10%
Taq polymerase; 50° C.
  Activity of Taq polymerase: 0.59
  Activation: +18%
Taq polymerase; 51° C.
  Activity of Taq polymerase: 0.64
  Activation: +21%
Taq polymerase; 52° C.
  Activity of Taq polymerase: 0.69
  Activation: +35%
Taq polymerase; 53° C.
  Activity of Taq polymerase: 0.70
  Activation: +23%
Taq polymerase; 53° C., 3.5M (36.4%)
  Taq polymerase activity at 3.5M (in words): residual activity
Taq polymerase; 53° C., concentration gradients, compared with 2-pyrrolidone, sulfolane and tetramethylene sulfoxide
  effect on Taq polymerase activity at high concentrations (in words): compromises polymerase activity to the least extent
Taq polymerase; 54° C.
  Activity of Taq polymerase: 0.63
  Activation: +3%
Taq polymerase; 55° C.
  Activity of Taq polymerase: 0.57
  Activation: −19%
